According to the supplement of paper PMC10307832:

Compound: O=C(Nc1cccc(C(F)(F)F)c1)Nc1cc(S(=O)(=O)NC2CC2)ccc1-c1ccsc1 [AGI-6780]
Test: relative viability (nuclei count vs DMSO), 5 days (fraction); higher = more cells survive
Method in brief: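 A plate was accepted only when its control CV was below 25% and the cells had doubled at least once. Viability is defined from nuclear counts as treated wells divided by vehicle wells, with the median taken across plates. That median covers lung cancer cell lines grown in 1536-well plates, dosed by pinning at five √10-spaced library-drug concentrations, and counted in MetaXpress from 4× Hoechst images after 5 days.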

| Cell Line | relative viability (0.08 µM) | relative viability (0.253 µM) | relative viability (0.8 µM) | relative viability (2.53 µM) | relative viability (8 µM) |
| --- | --- | --- | --- | --- | --- |
| 201T | 0.996 | 1 | 0.997 | 0.989 | 0.995 |
| A549 | 0.992 | 0.992 | 1.08 | 0.745 | 0.992 |
| A-427 | 0.994 | 0.919 | 1.1 | 0.815 | 1.04 |
| ABC-1 | 0.799 | 1.06 | 1.08 | 0.851 | 0.901 |
| BEN | 0.834 | 0.959 | 1.04 |  | 0.957 |
| CAL-12T | 0.962 | 1.02 | 1.18 | 1.03 | 1.07 |
| COR-L23 | 1.05 | 1.12 | 0.949 | 1.06 | 1.01 |
| COR-L 105 | 0.985 | 0.943 | 1 | 0.881 | 1.02 |
| Calu-6 | 1.03 | 1.01 | 1.07 | 0.993 | 1.03 |
| ChaGo-K-1 | 1.01 | 1.02 | 1.06 | 0.921 | 1 |
| EKVX | 0.986 | 1.03 | 0.938 | 0.799 | 0.969 |
| EMC-BAC-2 |  | 1.01 | 1.01 | 0.775 | 1.05 |
| EPLC-272H | 0.774 | 1.15 | 1.12 | 0.807 | 0.927 |
| H3255 | 0.956 | 1.03 | 1.04 | 0.826 | 0.97 |
| HARA | 1.04 | 1.15 | 1.02 | 0.942 | 1.17 |
| HCC-15 | 1.09 | 1.06 | 1.1 | 0.808 | 1.05 |
| HCC-44 | 0.955 | 1.01 | 0.995 | 1.04 | 0.959 |
| HCC-78 | 0.876 | 1.04 | 1.05 | 0.982 | 1.02 |
| HCC-366 | 1.01 | 1.08 | 1.01 | 0.96 | 1.02 |
| HCC-827 | 1.06 | 1.06 | 1.01 | 1.07 | 1.02 |
| HOP-62 | 1.03 | 1.01 | 0.994 | 0.984 | 1.03 |
| IA-LM | 0.921 | 0.954 | 1.15 | 1.02 | 1.04 |
| LC-2-ad | 1.02 | 1.05 | 1.1 | 0.96 | 0.996 |
| LCLC-97TM1 | 0.959 | 0.983 | 1.03 | 0.758 | 0.966 |
| LCLC-103H | 1.05 | 1.08 | 0.963 | 0.861 | 0.941 |
| LK-2 | 0.945 | 1.02 | 1.08 |  | 1.16 |
| LOU-NH91 | 0.953 | 0.992 | 1.04 | 0.923 | 0.961 |

| Cell Line | relative viability (0.08 µM) | relative viability (0.253 µM) | relative viability (0.8 µM) | relative viability (2.53 µM) | relative viability (8 µM) |
| --- | --- | --- | --- | --- | --- |
| LU99A | 0.975 | 0.928 | 0.987 | 0.839 | 0.931 |
| LXF-289 | 0.994 | 1.01 | 1.02 | 1.13 | 0.984 |
| NCI-H23 | 0.927 | 1.11 | 0.9 | 0.796 | 1.16 |
| NCI-H322M | 0.896 | 0.927 | 1.07 | 0.922 | 0.965 |
| NCI-H358 | 1.1 | 0.911 | 0.95 | 0.794 | 0.916 |
| NCI-H441 | 1.08 | 1.03 | 1.04 | 0.786 | 1.16 |
| NCI-H460 | 0.987 | 0.99 | 0.998 | 0.977 | 0.992 |
| NCI-H520 | 1.11 | 1.04 | 1.09 | 0.819 | 1.04 |
| NCI-H522 | 0.972 | 0.965 | 0.909 | 0.865 | 0.962 |
| NCI-H596 | 0.96 | 0.954 | 0.87 | 0.724 | 1.12 |
| NCI-H647 | 0.873 | 0.979 | 1.01 | 0.909 | 1.07 |
| NCI-H650 | 0.873 | 1.04 | 0.937 | 0.843 | 1.06 |
| NCI-H661 | 1 | 1 | 1.08 | 0.876 | 0.947 |
| NCI-H727 | 0.988 | 0.902 | 1.26 | 0.885 | 0.987 |
| NCI-H838 | 0.984 | 0.996 | 0.995 | 0.83 | 0.957 |
| NCI-H1299 | 1 | 0.98 | 0.955 | 1.04 | 1.01 |
| NCI-H1355 | 1.02 | 1.07 | 1.03 | 0.823 | 1 |
| NCI-H1395 | 0.928 | 1 | 1.09 | 0.768 | 0.97 |
| NCI-H1437 | 0.943 | 1 | 1.04 | 1 | 0.997 |
| NCI-H1563 | 0.999 | 1.02 | 0.949 | 0.87 | 0.98 |
| NCI-H1648 | 0.735 | 0.999 | 0.983 | 0.942 | 1.08 |
| NCI-H1650 | 0.942 | 0.915 | 1.2 | 0.995 | 0.976 |
| NCI-H1651 | 1.03 | 1.04 | 0.957 | 0.921 | 1.02 |
| NCI-H1666 | 1 | 0.974 | 0.981 | 0.843 | 1.06 |
| NCI-H1703 | 0.949 | 0.84 | 1.02 | 0.823 | 0.807 |
| NCI-H1734 | 0.945 | 1.07 | 1 | 0.692 | 1.06 |
| NCI-H1755 | 1.02 | 0.983 | 0.964 | 0.915 | 1 |

| Cell Line | relative viability (0.08 µM) | relative viability (0.253 µM) | relative viability (0.8 µM) | relative viability (2.53 µM) | relative viability (8 µM) |
| --- | --- | --- | --- | --- | --- |
| NCI-H1792 | 0.856 | 1.22 | 0.946 | 0.727 | 0.986 |
| NCI-H1793 | 1.19 | 1.08 | 1.03 | 0.768 | 0.897 |
| NCI-H1915 | 1.02 | 0.995 | 1.01 | 0.994 | 1.05 |
| NCI-H1944 | 1.02 | 0.975 | 1.02 |  | 1.06 |
| NCI-H1975 | 0.94 | 1.08 | 0.918 | 0.873 | 0.921 |
| NCI-H1993 | 1.01 | 1.07 | 1.19 | 0.677 | 0.971 |
| NCI-H2009 | 0.968 | 1.03 | 0.94 | 1.1 | 1.05 |
| NCI-H2023 | 0.969 | 0.978 | 1.03 | 0.882 | 1.03 |
| NCI-H2085 | 1.02 | 1 | 1.05 | 1.07 | 0.993 |
| NCI-H2087 | 1.03 | 1.18 | 1.12 | 1.01 | 1.12 |
| NCI-H2126 | 1.06 | 1.07 | 0.981 | 0.796 | 1.08 |
| NCI-H2170 | 0.988 | 1 | 0.909 |  | 0.975 |
| NCI-H2228 | 0.972 | 1.08 | 0.913 | 0.846 | 1.15 |
| NCI-H2342 | 0.984 | 1.01 | 1.15 | 0.848 | 1.2 |
| NCI-H2347 | 1.07 | 1.02 | 0.743 | 1.06 | 1.07 |
| NCI-H2405 | 0.995 | 1 | 0.842 | 0.923 | 1.01 |
| NCI-H3122 | 1 | 1.03 | 1.04 | 1.02 | 1.07 |
| PC-3 [JPC-3] | 0.982 | 1.04 | 1.08 | 1.08 | 0.962 |
| PC-14 | 1.02 | 1.01 | 1.05 | 1.02 | 1.04 |
| RERF-LC-KJ | 1.05 | 1.06 | 0.977 | 0.798 | 0.951 |
| SK-LU-1 | 1.05 | 1.04 | 0.777 | 0.945 | 1.19 |
| SK-MES-1 | 1.04 | 1.03 | 0.99 | 0.958 | 0.99 |
| SW 900 | 0.858 | 0.868 | 1.08 | 0.901 | 0.935 |
| SW 1573 | 1.03 | 1.02 | 1.04 | 0.739 | 0.957 |
| UMC-11 | 0.95 | 0.955 | 1.2 |  | 1.13 |
